# According to US5077289A (priority 1989, dated 1991):
# Structures can show the parent of a compound that is named as a salt. Where two headings read alike, the source gives them in different places.
# Tests used:
# Brain AChE = target: T1, Brain AChE (Rattus norvegicus, UniProt P37136); test: In vitro inhibition of acetylcholinesterase activity in rat striatum (modified Ellman); type: biochemical, rat (male Wistar)
# T1 construct: brains rapidly removed, corpora striata dissected free, weighed and homogenized in 19 volumes; from tissue; host or cells: corpus striatum homogenate of male Wistar rats
# T1 sequence (P37136 32-614): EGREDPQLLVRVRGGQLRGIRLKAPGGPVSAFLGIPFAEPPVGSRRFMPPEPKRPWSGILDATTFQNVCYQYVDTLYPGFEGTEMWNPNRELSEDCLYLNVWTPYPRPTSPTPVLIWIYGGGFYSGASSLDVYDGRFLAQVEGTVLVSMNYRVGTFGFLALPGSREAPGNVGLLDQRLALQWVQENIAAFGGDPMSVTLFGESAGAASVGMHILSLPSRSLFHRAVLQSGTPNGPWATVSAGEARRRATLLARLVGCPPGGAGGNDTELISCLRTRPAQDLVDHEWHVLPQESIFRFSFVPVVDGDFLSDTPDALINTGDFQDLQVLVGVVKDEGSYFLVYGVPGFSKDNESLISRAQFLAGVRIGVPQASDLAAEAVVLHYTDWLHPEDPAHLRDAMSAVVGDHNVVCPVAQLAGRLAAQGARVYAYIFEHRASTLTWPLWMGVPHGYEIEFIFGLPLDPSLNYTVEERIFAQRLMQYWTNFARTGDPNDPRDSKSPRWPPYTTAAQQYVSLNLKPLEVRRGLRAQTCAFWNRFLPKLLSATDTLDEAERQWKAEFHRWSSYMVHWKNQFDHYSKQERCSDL
# Procedure: Cholinesterases are found throughout the body, both in the brain and in serum. However, only brain acetylcholinesterase (AChE) distribution is correlated with central cholinergic innervation.
# This is a modification of the method of Ellman et al., Biochem. Pharmacol. 7, 98 (1961).
# 1. 0.05M Phosphate buffer, pH 7.2
# (a) 6.85 g NaH2 PO4 .cndot.H2 O/100 ml distilled H2 O
# (c) add (a) to (b) until pH reaches 7.2
# (a) 9.9 mg 5,5-dithiobisnitrobenzoic acid (DTNB) (0.25 mM)
# (c) q.s. to 100 ml with 0.05M phosphate buffer, pH 7.2 (reagent 1)
# 3. For most assays, a […] stock solution of the test drug is made up in a suitable solvent and serially diluted such that the final concentration in the preincubation step ranges from 10^-3 to 10^-6 M. Different concentrations may be used depending on the potency of the drug. […]
# Following the 10 minute preincubation of the tissue (enzyme) with the inhibitor, the samples are mixed with the substrate chromogen buffer by the ABA-100. Using the indicated instrument settings the ABA-100 automatically reads the color reaction and prints out the results in enzyme units after 15 minutes.
# 2. The enzyme activity can also be measured with a Gilford 250 spectrophotometer. […]
# The uninhibited activity of the enzyme (tissue homogenate) is first determined. […] The reaction rate is determined by the slope of the recorded absorbance change. […]
# [1] = tested on: 2-phenyl-1,4-benzoquinone-induced writhing; test: Inhibition of phenylquinone-induced writhing in mice (PQW), analgesic activity; type: in vivo, mice (male CD-1 Charles River); details: Mus musculus, sc, read-out: ANALGESIC ACTIVITY, POW (ED50)
# Procedure: Compounds I of the present invention are also useful as analgesic agents due to their ability to alleviate pain in mammals. […] Exptl. Biol. Med., 95, 729 (1957)].
# A 0.125% concentration of phenyl-p-benzoquinone in a 5% aqueous solution of ethyl alcohol is administered to mice (10 mL/kg, ip). This produces a characteristic "writhe" which is defined as an inward rotation of one or more feet with twisting and turning of the trunk, drawing in of the abdominal wall, lordosis, and arching of the back. A total of 28 male CD-1 Charles River mice (18-30 g) are employed for a time-response. Animals receive food and water ad libitum during their stay in the animal quarters prior to testing. Compounds are tested at 20 mg/kg, sc and are prepared with distilled water, and if insoluble one drop of Tween-80, a surfactant is added. Compounds are administered in a dosage volume of 10 mL/kg.
# Twenty mice (five per group) are administered the test compound at various pretreat time (e.g., 15, 30, 45, and 60 min) prior to phenylquinone injection. Control animals (two per group) receive an equal volume of vehicle. After the administration of phenylquinone, the mice are placed separately into 1-L beakers, and 5 min are allowed to elapse. The mice are then observed for a period of 10 min, and the number of writhers is recorded for each animal. The formula for computing percent inhibition is [formula]
# The time period with the maximum percent of inhibition is considered the peak time. A dose-response is reserved for interesting compounds or those which inhibit writhing by 70% or more. A dose-response is run in the same manner as a time-response except 10 animals per group are tested at the peak time of drug activity. Fifty animals, divided among four drug groups and one vehicle control group, are employed. The mice are normally given four doses of drug, each twice the amount of the preceding dose. An ED50 is calculated by a computer linear regression analysis.
# Results of this assay for some of the compounds of this invention and eseroline salicylate (reference compound) are shown in Table 3.
# [2] = tested on: Scopolamine Induced Memory Deficit; test: Dark Avoidance Assay (reversal of scopolamine induced memory deficit); type: in vivo; details: mice, s.c.
# Procedure: In this assay mice are tested for their ability to remember an unpleasant stimulus for a period of 24 hours. A mouse is placed in a chamber that contains a dark compartment; a strong incandescent light drives it to the dark compartment, where an electric shock is administered through metal plates on the floor. The animal is removed from the testing apparatus and tested again, 24 hours later, for the ability to remember the electric shock.
# If scopolamine, an anticholinergic that is known to cause memory impairment, is administered before an animal's initial exposure to the test chamber, the animal re-enters the dark compartment shortly after being placed in the test chamber 24 hours later. This effect of scopolamine is blocked by an active test compound, resulting in a greater interval before re-entry into the dark compartment.
# The results for an active compound are expressed as the percent of a group of animals in which the effect of scopolamine is blocked, as manifested by an increased interval between being placed in the test chamber and re-entering the dark compartment.
SMILES,ED50 [1] [mg/kg],% of Animals with Scopolamine Induced Memory Deficit Reversal ([2]; 0.16 mg/kg of body weight) [%],further results
"CN(C(=O)Nc1cccc(Cl)c1)C(=O)Oc1ccc2c(c1)[C@]1(C)CCN(C)[C@@H]1N2C [Example 5, (3aS-cis)-1,2,3,3a,8,8a-Hexahydro-1,3a,8-trimethylpyrrolo[2,3-b]indol-5-yl methyl[[(3-chlorophenyl)amino]carbonyl] carbamate]",0.15,–,IC50 (Brain AChE): 207 nM
"CNC(=O)N(C)C(=O)Oc1cc(C)c2c(c1)[C@]1(C)CCN(C)[C@@H]1N2C [Example 2, (3aS-cis)-1,2,3,3a,8,8a-Hexahydro-1,3a,7,8-tetramethylpyrrolo[2,3-b]indol-5-yl methyl[(methylamino)carbonyl] carbamate]",0.81,–,–
"CCCNC(=O)N(CCC)C(=O)Oc1ccc2c(c1)[C@]1(C)CCN(C)[C@@H]1N2C [Example 4, (3aS-cis)-1,2,3,3a,8,8a-Hexahydro-1,3a,8-trimethylpyrrolo[2,3-b]indol-5-yl propyl[(propylamino)carbonyl] carbamate oxalate]",–,40,% of Animals with Scopolamine Induced Memory Deficit Reversal ([2]; 2.50 mg/kg of body weight): 36%
"CN1CC[C@@]2(C)c3cc(O)ccc3N(C)[C@@H]12 [Eseroline Salicylate, reference compound]",–,–,"ED50 ([1]; mice, s.c., ED50 by linear regression per method, at peak time): 0.52 mg/kg"
"CNC(=O)N(C)C(=O)Oc1ccc2c(c1)[C@]1(C)CCN(C)[C@@H]1N2C [Example 1, (3aS-cis)-1,2,3,3a,8,8a-Hexahydro-1,3a,8-trimethylpyrrolo[2,3-b]indol-5-yl methyl[(methylamino)carbonyl] carbamate]",8,20,–
"CNC(=O)Oc1ccc2c(c1)[C@]1(C)CCN(C)[C@@H]1N2C [Physostigmine, reference compound]",–,–,% of Animals with Scopolamine Induced Memory Deficit Reversal ([2]; 0.31 mg/kg of body weight): 20%
